What all share (test): Checkerboard colistin sulphate (CS) plus teicoplanin (TP), MIC/FIC and MBC/FBC
For experiment [1], the system named is A. nosocomialis 1461911. It is filed as cell-based, Acinetobacter nosocomialis. The protocol:
(§1) Checkerboard analysis to determine minimal inhibitory concentration (MIC)/fractional inhibitory concentration (FIC) and minimal […] (MBC)/fractional […] (FBC) values of colistin sulphate (CS) plus teicoplanin (TP) for 6 Gram-negative strains with a bacterial load 5(1-10)*10^5 CFU/ml in a cation-adjusted Mueller-Hinton broth (CAMHB). • a. Antimicrobial stock solutions were prepared using sterile distilled water • b. CS was added along the ordinate; TP was added along the abscissa to 96 well, flat bottom, polystyrene panels with no treatment. Colistin alone was tested in triplicates. • c. Serial 2-fold dilutions starting with 640 μg/ml CS and 640 μg/ml TP were made; 15 μl volume of the serial dilutions were added for each agent to the appropriate wells; final volume at 30 μl • d. For each agent tested alone an additional 15 μl media was added to the well. 30 μl were added in control wells where none of the agent was tested. The negative control well contains 150 μl media without any additions • e. From an overnight bacterial culture in tryptic soy broth, 100 μL was added to 10 mL of fresh tryptic soy broth. This was then incubated at 37° C. for 1.5 hour at 180 rpm. • f. Bacteria in 120 μl CAMHB were added to each well (end concentration 5(1-10)*10^5 CFU/ml) • g. Plates were incubated at 37° C. in an ambient air incubator for 24 h • h. Turbidity at OD600 is determined with a plate photometer • i. By using a one-time inoculator 3 μl from each well of the 96-well plate were transferred to three blood agar plates. The plates were incubated over night at 37° C. in an ambient air incubator • j. MIC values are defined as lowest concentration which restricts bacterial growth to OD600 ≤0.1 • k. MBC values were determined by visual reading the lowest concentration which inhibits 99.9% of the growth of bacteria in the wells • l. Determination of the fractional inhibitory concentration (FIC) index and fractional bactericidal concentration (FBC) index and characterization of antimicrobial interactions was assessed […]
(§2) FIC calculation was carried out as: (MIC of drug A, tested in combination)/(MIC of drug A, tested alone)+(MIC of drug B, tested in combination)/(MIC of drug B, tested alone). FBC calculation was carried out just as well […]
(§3) Interactive categories were calculated from checkerboard analysis using MIC results from testing each agent alone and MIC results from the combination wells adjacent to the wells with growth in them […]
b. Indifference; FIC/FBC>0.5 to<4.0 c. Antagonism; FIC/FBC≥4.0 b. A. nosocomialis 1461911 (IHMA), colistin resistant

The subject of experiment [2] is A. guillouiae 1285286. It is filed as cell-based, Acinetobacter guillouiae. To be noted: Acinetobacter guillouiae, agent alone, CAMHB, 5*10^5 CFU/ml. As for the experimental part: as §1, §2, §3
b. Indifference; FIC/FBC>0.5 to<4.0 c. Antagonism; FIC/FBC≥4.0 d. A. guillouiae 1285286 (IHMA), colistin resistant

Experiment [3] deals with S. maltophilia 1237289. It is filed as cell-based, Stenotrophomonas maltophilia. To be noted: agent alone, CAMHB, 5*10^5 CFU/ml; for MIC: S. maltophilia 1237289. The protocol:
as §1, with “Plates were incubated at 37° C. in an ambient air incubator for 24 h • h.” left out
as §2, §3
b. Indifference; FIC/FBC>0.5 to<4.0 c. Antagonism; FIC/FBC≥4.0 f. S. maltophilia 1237289 (IHMA), colistin resistant

Read-outs that look alike come from different tables or passages of the source. Bridge positions count the residues as written; N and C are the ends. Square brackets hold non-standard residues; d marks the D form. Peptide text beside a SMILES is read from it. * marks the point of attachment. Heptanoyl(5-Me) = CCC(C)CCCC(=O)*; Dab = NCC[C@H](N)C(=O)O

Our source for the MIC and MBC values is US20220016200A1, “PHARMACEUTICAL COMPOSITION FOR THE TREATMENT OF CYSTIC FIBROSIS” (GALENUS G.H. AG, priority 2018, published 2022).

In general, MIC refers to the least concentration at which growth counts as inhibited. What is called MBC is the lowest tested concentration that kills the bacteria rather than only halting them.

For `CCC(C)CCCC(=O)N[C@@H](CCN)C(=O)N[C@H](C(=O)N[C@@H](CCN)C(=O)N[C@H]1CCNC(=O)[C@H]([C@@H](C)O)NC(=O)[C@H](CCN)NC(=O)[C@H](CCN)NC(=O)[C@H](CC(C)C)NC(=O)[C@@H](CC(C)C)NC(=O)[C@H](CCN)NC1=O)[C@@H](C)O` (stereo partly drawn) [CS, colistin sulphate] ({Heptanoyl(5-Me)}-[Dab]T[Dab][Dab][Dab][dL]L[Dab][Dab]T; lactam 4-C), the MIC is 4 µg/mL in experiment [1] (Acinetobacter nosocomialis, 1461911, colistin resistant A. nosocomialis strain 1461911 IHMA, as stated for the mouse model, read-out: MIC); 2 µg/mL in experiment [2] (A. guillouiae 1285286, 24 h, read-out: MIC); “(8) mg/l” in experiment [3] (after 48 h growth (values in brackets)); at most 0.5 µg/mL in experiment [3] (Stenotrophomonas maltophilia, 1237289, 24 h, 24 h, read-out: MIC). The MBC was 8 µg/mL in experiment [1] (Acinetobacter nosocomialis, 1461911, A. nosocomialis, agent alone, CAMHB, 5*10^5 CFU/ml, read-out: MBC); 4 µg/mL in experiment [2] (1285286, A. guillouiae, read-out: MBC); 8 µg/mL in experiment [3] (Stenotrophomonas maltophilia, S. maltophilia, second of two rows (strain number not given; by order 1237289)).
